Measurements as given in patent publication US20230257373A1, “QUORUM SENSING INHIBITORS AND METHODS OF USE” (priority 2020, published 2023).
Read-outs that look alike come from different tables or passages of the source.

What was measured:
[1] = test system: PluxC-gfp reporter in V. parahaemolyticus; test: PluxC-gfp reporter in V. parahaemolyticus strains; details: Vibrio parahaemolyticus
[2] = test system: PluxC-gfp reporter in V. vulnificus; test: PluxC-gfp reporter in V. vulnificus strains; details: Vibrio vulnificus
[3] = test system: PluxC-gfp reporter in V. coralliilyticus; test: PluxC-gfp reporter in V. coralliilyticus strains
[4] = test system: PluxC-gfp reporter in V. campbellii; test: PluxC-gfp reporter in V. campbellii strains; details: Vibrio campbellii
[5] = read-out: Inhibition (IC50) of the PluxC-gfp reporter, Vpara 12-297/B
[6] = read-out: Inhibition (IC50) of the PluxC-gfp reporter, Vpara D4
[7] = read-out: Inhibition (IC50) of the PluxC-gfp reporter, Vpara RIMD 2210633
[8] = ATCC27562, read-out: Inhibition (IC50) of the PluxC-gfp reporter, Vvul ATCC 27562
[9] = read-out: Inhibition (IC50) of the PluxC-gfp reporter, Vvul CMPC6
[10] = read-out: Inhibition (IC50) of the PluxC-gfp reporter, Vvul YJ016
[11] = read-out: Inhibition (IC50) of the PluxC-gfp reporter, Vcoral OCN 008
[12] = read-out: Inhibition (IC50) of the PluxC-gfp reporter, Vcoral OCN 014
[13] = ATCC25920, read-out: Inhibition (IC50) of the PluxC-gfp reporter, Vcamp ATCC 25920
[14] = read-out: Inhibition (IC50) of the PluxC-gfp reporter, Vcamp BB120
[15] = read-out: Inhibition (IC50) of the PluxC-gfp reporter, Vcamp HY01

**Q.** Which IC50 [1, 5] does the source give for `O=S(=O)(c1cccs1)n1cccn1` [Compound 1B, 1-(thiophen-2-ylsulfonyl)-1H-pyrazole] here?
**A.** 11.8 µM

**Q.** What about the IC50 [1, 6] of the same compound?
**A.** 18.9 µM

**Q.** What about the IC50 [1, 7] of the same compound?
**A.** 15.9 µM

**Q.** What about the IC50 [2, 8] of the same compound?
**A.** 3.4 µM

**Q.** What about the IC50 [2, 9] of the same compound?
**A.** 29.6 µM

**Q.** What about the IC50 [2, 10] of the same compound?
**A.** 6.5 µM

**Q.** And the IC50 [3, 11]?
**A.** 55.7 µM

**Q.** What about the IC50 [3, 12] of the same compound?
**A.** 101 µM

**Q.** What about the IC50 [4, 13] of the same compound?
**A.** 12.8 µM

**Q.** What about the IC50 [4, 14] of the same compound?
**A.** 52.6 µM

**Q.** And the IC50 [4, 15]?
**A.** 23.2 µM

**Q.** What does the source list for `O=S(=O)(c1ccc(Cl)s1)n1cccn1` [Compound 1C, 1-((5-chlorothiophen-2-yl)sulfonyl)-1H-pyrazole]?
**A.** IC50 [1, 5]: 1.6 µM; IC50 [1, 6]: 12.5 µM; IC50 [1, 7]: 1.7 µM; IC50 [2, 8]: 0.4 µM; IC50 [2, 9]: 2.3 µM; IC50 [2, 10]: 0.8 µM; IC50 [3, 11]: 9.1 µM; IC50 [3, 12]: 9.4 µM; IC50 [4, 13]: 0.5 µM; IC50 [4, 14]: 3.3 µM; IC50 [4, 15]: 1 µM

**Q.** `O=S(=O)(c1ccccc1)n1cccn1` [Compound 1E, 1-(phenylsulfonyl)-1H-pyrazole] was tested. Which IC50 [1, 5] did it give?
**A.** 8.1 µM

**Q.** And the IC50 [1, 6]?
**A.** 12.7 µM

**Q.** And the IC50 [1, 7]?
**A.** 11 µM

**Q.** What about the IC50 [2, 8] of the same compound?
**A.** 2.7 µM

**Q.** What about the IC50 [2, 9] of the same compound?
**A.** 22 µM

**Q.** And the IC50 [2, 10]?
**A.** 4.6 µM

**Q.** What about the IC50 [3, 11] of the same compound?
**A.** 49.2 µM

**Q.** What about the IC50 [3, 12] of the same compound?
**A.** 66.2 µM

**Q.** And the IC50 [4, 13]?
**A.** 8.4 µM

**Q.** And the IC50 [4, 14]?
**A.** 51.4 µM

**Q.** And the IC50 [4, 15]?
**A.** 14.8 µM

**Q.** Which IC50 [1, 5] does the source give for `O=S(=O)(c1ccc(Br)s1)n1cccc1` [Compound 3A, 1-((5-bromothiophen-2-yl)sulfonyl)-1H-pyrrole] here?
**A.** 3 µM

**Q.** What about the IC50 [1, 6] of the same compound?
**A.** 2.8 µM

**Q.** And the IC50 [1, 7]?
**A.** 2.6 µM

**Q.** What about the IC50 [2, 8] of the same compound?
**A.** 0.7 µM

**Q.** What about the IC50 [2, 9] of the same compound?
**A.** 6.1 µM

**Q.** And the IC50 [2, 10]?
**A.** 1.3 µM

**Q.** What about the IC50 [3, 11] of the same compound?
**A.** 23.1 µM

**Q.** And the IC50 [3, 12]?
**A.** 22.6 µM

**Q.** What about the IC50 [4, 14] of the same compound?
**A.** 15 µM

**Q.** What about the IC50 [4, 15] of the same compound?
**A.** 1.6 µM

**Q.** How did the IC50 [1, 5] turn out when `O=S(=O)(c1cccs1)n1cccc1` [Compound 3B, 1-(thiophen-2-ylsulfonyl)-1H-pyrrole] was run?
**A.** 4 µM

**Q.** And the IC50 [1, 6]?
**A.** 3.5 µM

**Q.** And the IC50 [1, 7]?
**A.** 2.5 µM

**Q.** And the IC50 [2, 8]?
**A.** 0.9 µM

**Q.** And the IC50 [2, 9]?
**A.** 5.9 µM

**Q.** What about the IC50 [2, 10] of the same compound?
**A.** 1.5 µM

**Q.** What about the “Effect in V. coralliilyticus OCN008 (in words)” value ([3]; OCN008) of the same compound?
**A.** most noticeable effect

**Q.** And the IC50 [3, 11]?
**A.** 39.2 µM

**Q.** And the IC50 [3, 12]?
**A.** 95.1 µM

**Q.** What about the IC50 [4, 13] of the same compound?
**A.** 2 µM

**Q.** And the IC50 [4, 14]?
**A.** 18.9 µM

**Q.** And the IC50 [4, 15]?
**A.** 3.6 µM

**Q.** How did the IC50 [1, 7] turn out when `O=S(=O)(c1ccc(Cl)s1)n1cccc1` [Compound 3C, 1-((5-chlorothiophen-2-yl)sulfonyl)-1H-pyrrole] was run?
**A.** 2 µM

**Q.** And the IC50 [2, 8]?
**A.** 0.5 µM

**Q.** And the IC50 [3, 11]?
**A.** 1.3 µM

**Q.** And the IC50 [4, 14]?
**A.** 8.3 µM

**Q.** Which IC50 [1, 5] does the source give for `O=C(c1ccc(COc2ccc(Cl)cc2)o1)N1CCN(Cc2ccc3c(c2)OCO3)CC1` [P0053 I18, (4-(benzo[d][1,3]dioxol-5-ylmethyl)piperazin-1-yl)(5-((4-chlorophenoxy)methyl)furan-2-yl)methanone] here?
**A.** 8.1 µM

**Q.** What about the IC50 [1, 6] of the same compound?
**A.** 6.4 µM

**Q.** And the IC50 [1, 7]?
**A.** 2.8 µM

**Q.** What about the IC50 [2, 8] of the same compound?
**A.** 0.7 µM

**Q.** And the IC50 [2, 9]?
**A.** 4.9 µM

**Q.** What about the IC50 [2, 10] of the same compound?
**A.** 3.2 µM

**Q.** What about the IC50 [3, 11] of the same compound?
**A.** 18.9 µM

**Q.** What about the IC50 [3, 12] of the same compound?
**A.** 10.4 µM

**Q.** And the IC50 [4, 13]?
**A.** 1.8 µM

**Q.** What about the IC50 [4, 14] of the same compound?
**A.** 2 µM

**Q.** What about the IC50 [4, 15] of the same compound?
**A.** 4.3 µM
